Consider 22 compounds from patent US12239643B2, “Therapeutic agent for inflammatory diseases, autoimmune diseases, fibrotic diseases, and cancer diseases” (MEIJI SEIKA PHARMA CO., LTD., priority 2018, dated 2025).

pIC50: −log10 of the molar value. Where two headings read alike, the source gives them in different places.

Series [1] is described as follows: Hepatic metabolic stability (rat liver microsome method). The note with it: rat liver microsomes 0.5 mg/mL, test substance 1 μM, NADPH 1 mM, 37° C., 30 minutes. It is filed as in vitro ADME. How it is done:
Metabolic stability in rat liver microsomes was evaluated by the following method. First, in 100 mM of potassium phosphate buffer solution (pH 7.4), liver microsomes (concentration at reaction: 0.5 mg/mL) and the test substance (concentration at reaction: 1 μM) were preincubated at 37° C. Five minutes later, 100 mM of potassium phosphate buffer (pH 7.4) solution of NADPH (concentration at reaction: 1 mM) was mixed thereto to start the reaction. After a predetermined time passed, acetonitrile was mixed to the reaction mixture to stop the reaction. Here, the reaction time was 0 and 30 minutes, and drug concentration measurement was performed for each time period using LC-MS. The % remaining value of the test compound was calculated from the value for 0 minutes and the value for 30 minutes, using the calculation formula below: % Remaining=(Value for 30 Minutes/Value for 0 Minutes)×100
The results of measuring the rat liver microsome metabolic Stability (% remaining for 30-minute reaction) for the test compound by the above method were evaluated in accordance with the following evaluated basis; A: a % remaining rate of 75% or more, B: 60% or more and less than 75%, C: 45% or more and less than 60%, and D: less than 45%.

Series [2] deals with PDE4. In words: Evaluation of PDE4 inhibitory activity, scintillation proximity assay. The note with it: scintillation proximity assay. It is filed as biochemical. A digest of the protocol: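 SPA with [2,8-3H]-cAMP and diluted PDE4 enzyme preparation in 50 mM Tris-HCl pH 7.4, 8.3 mM MgCl2, 1.7 mM EGTA, 3 mg/mL BSA, 120 min at room temperature. Product captured on ZnSO4-containing YSi-SPA beads, scintillation counted; IC50 from inhibition curves vs DMSO control and no-enzyme blank.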

Where [3] appears, read: read-out: PDE4 Inhibitory Activity (Evaluation 1; concentration for the inhibition rate of 50%).
The mark [4] stands for this setting: class symbols of Evaluation 1, read-out: PDE4 Inhibitory Activity (concentration for the inhibition rate of 50%, IC50), Evaluation 1.

As for `CC(C)(O)C(F)(F)Oc1ccc(-c2ccc(Cl)cn2)c2oc(N3CC4CC(C3)N4)nc12` [Example 363, 1-((2-(3,6-Diazabicyclo[3.1.1]heptan-3-yl)-7-(5-chloropyridin-2-yl)benzo[d]oxazol-4-yl)oxy)-1,1-difluoro-2-methylpropan-2-ol], the “Residual ratio (% remaining for 30-minute reaction)” value in series [1] was “A (A: a % remaining rate of 75% or more)”. For the same compound, in series [2] (setting [3]), the pIC50 was more than 7.00.
Regarding `N#Cc1ccc(-c2nccs2)c2oc(N3CC4CC(C3)N4)nc12` [Example 335, 2-(3,6-Diazabicyclo[3.1.1]heptan-3-yl)-7-(thiazol-2-yl)benzo[d]oxazole-4-carbonitrile], the “Residual ratio (% remaining for 30-minute reaction)” value in series [1] is recorded as “A (A: a % remaining rate of 75% or more)”. For the same compound, in series [2] (setting [3]), the pIC50 is more than 7.00.
`OCC(F)(F)Oc1ccc(-c2nccs2)c2oc(N3CC4CC(C3)N4O)nc12` [Example 374, 3-(4-(1,1-Difluoro-2-hydroxyethoxy)-7-(thiazol-2-yl)benzo[d]oxazol-2-yl)-3,6-diazabicyclo[3.1.1]heptan-6-ol]: the “Residual ratio (% remaining for 30-minute reaction)” value in series [1] was “B (B: 60% or more and less than 75%)”. Also, the pIC50 in series [2] (setting [3]) was more than 7.00.
For the compound `O=C(N1CCOCC1)C(F)(F)Oc1ccc(-c2nccs2)c2oc(N3CC4CC(C3)N4)nc12` [Example 409, 2-((2-(3,6-Diazabicyclo[3.1.1]heptan-3-yl)-7-(thiazol-2-yl)benzo[d]oxazol-4-yl)oxy)-2,2-difluoro-1-morpholinoethan-1-one], the “Residual ratio (% remaining for 30-minute reaction)” value in series [1] was “B (B: 60% or more and less than 75%)”. In addition, the pIC50 in series [2] (setting [3]) was more than 7.00.
`OCC(F)(F)Oc1ccc(-c2nccs2)c2oc(N3CC4CCC(C3)N4)nc12` [Example 404, 2-((2-(3,8-Diazabicyclo[3.2.1]octan-3-yl)-7-(thiazol-2-yl)benzo[d]oxazol-4-yl)oxy)-2,2-difluoroethan-1-ol]: the “Residual ratio (% remaining for 30-minute reaction)” value in series [1] was “B (B: 60% or more and less than 75%)”. For the same compound, the pIC50 in series [2] (setting [3]) was more than 7.00.
Take `CS(=O)(=O)c1ccc(Oc2ccc(-c3nccs3)c3oc(N4CC5CC(C4)N5)nc23)nc1` [Example 352, 2-(3,6-Diazabicyclo[3.1.1]heptan-3-yl)-4-((5-(methylsulfonyl)pyridin-2-yl)oxy)-7-(thiazol-2-yl)benzo[d]oxazole]: the “Residual ratio (% remaining for 30-minute reaction)” value in series [1] is “A (A: a % remaining rate of 75% or more)”. In series [2] (setting [3]), the pIC50 is more than 7.00.
In the case of `FC(F)(F)Oc1c(Cl)cc(-n2cccn2)c2oc(N3CC4CCC(C3)N4)nc12` [Example 5, 2-(3,8-Diazabicyclo[3.2.1]octan-3-yl)-5-chloro-7-(1H-pyrazol-1-yl)-4-(trifluoromethoxy)benzo[d]oxazole], the “Residual ratio (% remaining for 30-minute reaction)” value in series [1] is “B (B: 60% or more and less than 75%)”. Besides, the pIC50 in series [2] (setting [4]) was more than 7.00.
Turning to `OC(c1cc(-c2nccs2)c2oc(N3CC4CCC(C3)N4)nc2c1)C(F)F` (centres unmarked) [Example 104, 1-(2-(3,8-Diazabicyclo[3.2.1]octan-3-yl)-7-(thiazol-2-yl)benzo[d]oxazol-5-yl)-2,2-difluoroethan-1-ol], in series [1], the “Residual ratio (% remaining for 30-minute reaction)” value is “B (B: 60% or more and less than 75%)”. Moreover, in series [2] (setting [4]), the pIC50 is more than 7.00.
For `Cn1ccc(-c2ccc(OC(F)(F)C(C)(C)O)c3nc(N4CC5CCC(C4)N5)oc23)n1` [Example 328, 1-((2-(3,8-Diazabicyclo[3.2.1]octan-3-yl)-7-(1-methyl-1H-pyrazol-3-yl)benzo[d]oxazol-4-yl)oxy)-1,1-difluoro-2-methylpropan-2-ol], the “Residual ratio (% remaining for 30-minute reaction)” value in series [1] is reported as “A (A: a % remaining rate of 75% or more)”. Further, the pIC50 in series [2] (setting [3]) was more than 7.00.
Take `OCC(O)C(F)(F)Oc1ccc(-c2nccs2)c2oc(N3CC4CC(C3)N4)nc12` (centres unmarked) [Example 370, 3-((2-(3,6-Diazabicyclo[3.1.1]heptan-3-yl)-7-(thiazol-2-yl)benzo[d]oxazol-4-yl)oxy)-3,3-difluoropropane-1,2-diol]: the “Residual ratio (% remaining for 30-minute reaction)” value in series [1] was “A (A: a % remaining rate of 75% or more)”. Besides, the pIC50 in series [2] (setting [3]) was more than 7.00.
Regarding `O=S(=O)(c1ccc(-c2nccs2)c2oc(N3CC4CC(C3)N4)nc12)C(F)(F)F` [Example 334, 2-(3,6-Diazabicyclo[3.1.1]heptan-3-yl)-7-(thiazol-2-yl)-4-((trifluoromethyl)sulfonyl)benzo[d]oxazole], the “Residual ratio (% remaining for 30-minute reaction)” value in series [1] was “B (B: 60% or more and less than 75%)”. The pIC50 in series [2] (setting [3]) is more than 7.00.
On to `FC(F)(F)C(OCc1nnn[nH]1)c1ccc(-c2nccs2)c2oc(N3CC4CC(C3)N4)nc12` (centres unmarked) [Example 231, 4-(1-((1H-tetrazol-5-yl)methoxy)-2,2,2-trifluoroethyl)-2-(3,6-diazabicyclo[3.1.1]heptan-3-yl)-7-(thiazol-2-yl)benzo[d]oxazole], for which, in series [1], the “Residual ratio (% remaining for 30-minute reaction)” value was “A (A: a % remaining rate of 75% or more)”. Moreover, the pIC50 in series [2] (setting [3]) was more than 7.00.
`Cc1nsc(-c2ccc(OC(F)(F)C(C)(C)O)c3nc(N4CC5CCC(C4)N5)oc23)n1` [Example 333, 1-((2-(3,8-Diazabicyclo[3.2.1]octan-3-yl)-7-(3-methyl-1,2,4-thiadiazol-5-yl)benzo[d]oxazol-4-yl)oxy)-1,1-difluoro-2-methylpropan-2-ol]: the “Residual ratio (% remaining for 30-minute reaction)” value in series [1] was “B (B: 60% or more and less than 75%)”. Further, the pIC50 in series [2] (setting [3]) is 6.00 to 7.00.
As for `CCNC(=O)c1ccc(-c2nccs2)c2oc(N3CC4CC(C3)N4)nc12` [Example 358, 2-(3,6-Diazabicyclo[3.1.1]heptan-3-yl)-N-ethyl-7-(thiazol-2-yl)benzo[d]oxazole-4-carboxamide], the “Residual ratio (% remaining for 30-minute reaction)” value in series [1] was “A (A: a % remaining rate of 75% or more)”. The pIC50 in series [2] (setting [3]) is more than 7.00.
For `NC(=O)C(F)(F)Oc1ccc(-c2nccs2)c2oc(N3CC4CC(C3)N4)nc12` [Example 410, 2-((2-(3,6-Diazabicyclo[3.1.1]heptan-3-yl)-7-(thiazol-2-yl)benzo[d]oxazol-4-yl)oxy)-2,2-difluoroacetamide] the same measures were “A (A: a % remaining rate of 75% or more)” and more than 7.00.
Take `OCc1cnc(Oc2ccc(-c3nccs3)c3oc(N4CC5CC(C4)N5)nc23)c(C(F)(F)F)c1` [Example 342, (6-((2-(3,6-Diazabicyclo[3.1.1]heptan-3-yl)-7-(thiazol-2-yl)benzo[d]oxazol-4-yl)oxy)-5-(trifluoromethyl)pyridin-3-yl)methanol]: the “Residual ratio (% remaining for 30-minute reaction)” value in series [1] was “B (B: 60% or more and less than 75%)”. Besides, in series [2] (setting [3]), the pIC50 was more than 7.00.
For the compound `COCCNS(=O)(=O)c1ccc(-c2nccs2)c2oc(N3CC4CC(C3)N4)nc12` [Example 387, 2-(3,6-Diazabicyclo[3.1.1]heptan-3-yl)-N-(2-methoxyethyl)-7-(thiazol-2-yl)benzo[d]oxazole-4-sulfonamide], in series [1], the “Residual ratio (% remaining for 30-minute reaction)” value is on record as “A (A: a % remaining rate of 75% or more)”. Moreover, the pIC50 in series [2] (setting [3]) is more than 7.00.
For `COCCNC(=O)c1ccc(-c2nccs2)c2oc(N3CC4CC(C3)N4)nc12` [Example 353, 2-(3,6-Diazabicyclo[3.1.1]heptan-3-yl)-N-(2-methoxyethyl)-7-(thiazol-2-yl)benzo[d]oxazole-4-carboxamide] the same measures were “A (A: a % remaining rate of 75% or more)” and more than 7.00.
Take `CC(C)(O)C(F)(F)Oc1ccc(-c2ncco2)c2oc(N3CC4CCC(C3)N4)nc12` [Example 321, 1-((2-(3,8-Diazabicyclo[3.2.1]octan-3-yl)-7-(oxazol-2-yl)benzo[d]oxazol-4-yl)oxy)-1,1-difluoro-2-methylpropan-2-ol]: the “Residual ratio (% remaining for 30-minute reaction)” value in series [1] is “A (A: a % remaining rate of 75% or more)”. The pIC50 in series [2] (setting [3]) is more than 7.00.
As to `Cc1csc(-c2ccc(OC(F)(F)C(C)(C)O)c3nc(N4CC5CCC(C4)N5)oc23)n1` [Example 318, 1-((2-(3,8-Diazabicyclo[3.2.1]octan-3-yl)-7-(4-methylthiazol-2-yl)benzo[d]oxazol-4-yl)oxy)-1,1-difluoro-2-methylpropan-2-ol], the “Residual ratio (% remaining for 30-minute reaction)” value in series [1] was “B (B: 60% or more and less than 75%)”. Further, in series [2] (setting [3]), the pIC50 was more than 7.00.
As for `CC(C)(O)C(F)(F)Oc1ccc(-c2nccs2)c2oc(N3CC4CCC(C3)N4)nc12` [Example 405, 1-((2-(3,8-Diazabicyclo[3.2.1]octan-3-yl)-7-(thiazol-2-yl)benzo[d]oxazol-4-yl)oxy)-1,1-difluoro-2-methylpropan-2-ol], the “Residual ratio (% remaining for 30-minute reaction)” value in series [1] was “B (B: 60% or more and less than 75%)”. For the same compound, in series [2] (setting [3]), the pIC50 is more than 7.00.
Take `CC(C)(O)C(F)(F)Oc1ccc(-c2ncns2)c2oc(N3CC4CCC(C3)N4)nc12` [Example 327, 1-((2-(3,8-Diazabicyclo[3.2.1]octan-3-yl)-7-(1,2,4-thiadiazol-5-yl)benzo[d]oxazol-4-yl)oxy)-1,1-difluoro-2-methylpropan-2-ol]: the “Residual ratio (% remaining for 30-minute reaction)” value in series [1] is “B (B: 60% or more and less than 75%)”. Besides, the pIC50 in series [2] (setting [3]) was more than 7.00.
